# Reference: ChEMBL document CHEMBL1201862, “PubChem BioAssay data set” (2004)
#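 Step 1: Grow cells in 96-well plates. Step 2: Expose to compound for 48 hours at 5 concentrations. Step 3: Interpolate endpoints linearly; if unreached, use highest concentration. At the GI50, growth is halved.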 Calls of active or inactive are those of the source. No stated cut-off is given here; in the data, active = GI50 up to about 1.1 µM and inactive = higher.
# What was measured:
# Assay in all cases: NCI anticancer screen, dose series, 48 h
# SNB-75 = system: SNB-75
# UACC-257 = system: UACC-257
# BT-549 = system: BT-549
# IGROV-1 = system: IGROV-1
# SW-620 = system: SW-620
# OVCAR-8 = system: OVCAR-8
# UACC-62 = system: UACC-62
# MCF7 = system: MCF7
# T47D = system: T47D
# NCI-H460 = system: NCI-H460
# SK-OV-3 = system: SK-OV-3
# NCI-H23 = system: NCI-H23
# HOP-92 = system: HOP-92
# SK-MEL-5 = system: SK-MEL-5
# DU-145 = system: DU-145
# OVCAR-5 = system: OVCAR-5
# CAKI-1 = system: CAKI-1
# OVCAR-3 = system: OVCAR-3
# SN12C = system: SN12C
# EKVX = system: EKVX
# K562 = system: K562
# SK-MEL-28 = system: SK-MEL-28
# RXF 393 = system: RXF 393
# A549 = system: A549
# HL-60 = system: HL-60
# LOX IMVI = system: LOX IMVI
# MDA-MB-231 = system: MDA-MB-231
# U-251 = system: U-251
# SF-539 = system: SF-539
# UO-31 = system: UO-31
# MDA-N = system: MDA-N
# HCT-116 = system: HCT-116
# OVCAR-4 = system: OVCAR-4
# HCC 2998 = system: HCC 2998
# SR = system: SR
# MDA-MB-435 = system: MDA-MB-435
# M14 = system: M14
# CCRF-CEM = system: CCRF-CEM
# 786-0 = system: 786-0
# SF-268 = system: SF-268
# SF-295 = system: SF-295
# NCI/ADR-RES = system: NCI/ADR-RES
# Malme-3M = system: Malme-3M
# SNB-19 = system: SNB-19
# COLO 205 = system: COLO 205
# NCI-H226 = system: NCI-H226
# MOLT-4 = system: MOLT-4
# Hs-578T = system: Hs-578T
# A498 = system: A498
# HOP-62 = system: HOP-62
# HCT-15 = system: HCT-15
# PC-3 = system: PC-3
# SK-MEL-2 = system: SK-MEL-2
# RPMI-8226 = system: RPMI-8226
# KM12 = system: KM12
# HT-29 = system: HT-29
# ACHN = system: ACHN
# TK-10 = system: TK-10
# NCI-H522 = system: NCI-H522
smiles,measurement,setting,value
CCOC(=O)c1cc2c([nH]1)c(O)cc1c2ccn1Cc1ccccc1,GI50,SNB-75,22.2 µM (inactive)
same,GI50,UACC-257,19.7 µM (inactive)
same,GI50,BT-549,17.8 µM (inactive)
same,GI50,IGROV-1,19.3 µM (inactive)
same,GI50,SW-620,18 µM (inactive)
same,GI50,OVCAR-8,17.2 µM (inactive)
same,GI50,UACC-62,15.5 µM (inactive)
same,GI50,MCF7,12.5 µM (inactive)
same,GI50,T47D,2.85 µM (inactive)
same,GI50,NCI-H460,19.5 µM (inactive)
same,GI50,SK-OV-3,20.7 µM (inactive)
same,GI50,NCI-H23,13.7 µM (inactive)
same,GI50,HOP-92,13.5 µM (inactive)
same,GI50,SK-MEL-5,12.1 µM (inactive)
same,GI50,DU-145,17.8 µM (inactive)
same,GI50,OVCAR-5,17.7 µM (inactive)
same,GI50,CAKI-1,22 µM (inactive)
same,GI50,OVCAR-3,14.6 µM (inactive)
same,GI50,SN12C,20.2 µM (inactive)
same,GI50,EKVX,12.8 µM (inactive)
same,GI50,K562,8.34 µM (inactive)
same,GI50,SK-MEL-28,17.5 µM (inactive)
same,GI50,RXF 393,7.8 µM (inactive)
same,GI50,A549,13.7 µM (inactive)
same,GI50,HL-60,13 µM (inactive)
same,GI50,LOX IMVI,14.4 µM (inactive)
same,GI50,MDA-MB-231,23.5 µM (inactive)
same,GI50,U-251,16.7 µM (inactive)
same,GI50,SF-539,19.4 µM (inactive)
same,GI50,UO-31,14.9 µM (inactive)
same,GI50,MDA-N,15.3 µM (inactive)
same,GI50,HCT-116,11.6 µM (inactive)
same,GI50,OVCAR-4,19.9 µM (inactive)
same,GI50,HCC 2998,19 µM (inactive)
same,GI50,SR,1.03 µM (active)
same,GI50,MDA-MB-435,16.9 µM (inactive)
same,GI50,M14,23.6 µM (inactive)
same,GI50,CCRF-CEM,10.8 µM (inactive)
same,GI50,786-0,18.1 µM (inactive)
same,GI50,SF-268,19.5 µM (inactive)
same,GI50,SF-295,15.8 µM (inactive)
same,GI50,NCI/ADR-RES,17.3 µM (inactive)
same,GI50,Malme-3M,18.5 µM (inactive)
same,GI50,SNB-19,14.2 µM (inactive)
same,GI50,COLO 205,21.4 µM (inactive)
same,GI50,NCI-H226,15.1 µM (inactive)
same,GI50,MOLT-4,1.91 µM (inactive)
same,GI50,Hs-578T,19.4 µM (inactive)
same,GI50,A498,29.8 µM (inactive)
same,GI50,HOP-62,17.7 µM (inactive)
same,GI50,HCT-15,15.1 µM
same,GI50,PC-3,16.1 µM (inactive)
same,GI50,SK-MEL-2,20.4 µM (inactive)
same,GI50,RPMI-8226,8.41 µM (inactive)
same,GI50,KM12,10.3 µM (inactive)
same,GI50,HT-29,16.6 µM (inactive)
COc1cc(C[C@@H](C)N)cc(OC)c1,GI50,SNB-75,21.8 µM (inactive)
same,GI50,UACC-257,> 100 µM (inactive)
same,GI50,ACHN,> 100 µM (inactive)
same,GI50,BT-549,> 100 µM (inactive)
same,GI50,IGROV-1,> 100 µM (inactive)
same,GI50,SW-620,> 100 µM (inactive)
same,GI50,OVCAR-8,> 100 µM (inactive)
same,GI50,UACC-62,> 100 µM (inactive)
same,GI50,MCF7,> 100 µM (inactive)
same,GI50,T47D,> 100 µM (inactive)
same,GI50,NCI-H460,> 100 µM (inactive)
same,GI50,SK-OV-3,> 100 µM (inactive)
same,GI50,NCI-H23,> 100 µM (inactive)
same,GI50,SK-MEL-5,> 100 µM (inactive)
same,GI50,DU-145,> 100 µM (inactive)
same,GI50,OVCAR-5,> 100 µM (inactive)
same,GI50,CAKI-1,> 100 µM (inactive)
same,GI50,OVCAR-3,> 100 µM (inactive)
same,GI50,SN12C,> 100 µM (inactive)
same,GI50,K562,> 100 µM (inactive)
same,GI50,SK-MEL-28,> 100 µM (inactive)
same,GI50,RXF 393,43.7 µM (inactive)
same,GI50,A549,> 100 µM (inactive)
same,GI50,HL-60,> 100 µM (inactive)
same,GI50,LOX IMVI,> 100 µM (inactive)
same,GI50,MDA-MB-231,> 100 µM (inactive)
same,GI50,U-251,> 100 µM (inactive)
same,GI50,SF-539,> 100 µM (inactive)
same,GI50,UO-31,> 100 µM (inactive)
same,GI50,MDA-N,> 100 µM (inactive)
same,GI50,TK-10,> 100 µM (inactive)
same,GI50,HCT-116,> 100 µM (inactive)
same,GI50,OVCAR-4,> 100 µM (inactive)
same,GI50,HCC 2998,> 100 µM (inactive)
same,GI50,SR,> 100 µM (inactive)
same,GI50,MDA-MB-435,> 100 µM (inactive)
same,GI50,M14,> 100 µM (inactive)
same,GI50,CCRF-CEM,> 100 µM (inactive)
same,GI50,786-0,> 100 µM (inactive)
same,GI50,SF-268,> 100 µM (inactive)
same,GI50,SF-295,> 100 µM (inactive)
same,GI50,NCI/ADR-RES,> 100 µM (inactive)
same,GI50,Malme-3M,> 100 µM (inactive)
same,GI50,SNB-19,> 100 µM (inactive)
same,GI50,NCI-H522,> 100 µM (inactive)
same,GI50,COLO 205,> 100 µM (inactive)
same,GI50,NCI-H226,> 100 µM (inactive)
same,GI50,MOLT-4,> 100 µM (inactive)
same,GI50,Hs-578T,> 100 µM (inactive)
same,GI50,A498,> 100 µM (inactive)
same,GI50,HOP-62,> 100 µM (inactive)
same,GI50,HCT-15,> 100 µM
same,GI50,PC-3,> 100 µM (inactive)
same,GI50,SK-MEL-2,> 100 µM (inactive)
same,GI50,RPMI-8226,> 100 µM (inactive)
same,GI50,KM12,> 100 µM (inactive)
same,GI50,HT-29,> 100 µM (inactive)
